This assay deals with recombinant human integrin αVβ6 (Homo sapiens (Human), UniProt P06756+P18564). The experiment in a line: Solid phase integrin αVβ6 binding assay. The conditions noted are these: inhibition of recombinant TGFβ1 LAP binding to coated integrin, IC50 presented in four ranges, read-out: αvβ6 Inhibition IC50 (nM) - range. On the procedure: (§1) Microplates were coated with recombinant human integrin αVβ6 (2 μg/mL) in PBS (100 μL/well 25° C., overnight). The coating solution was removed, washed with wash buffer (0.05% Tween 20; 0.5 mM MnCl2; in 1×TBS). The plate was blocked with 200 μL/well of Block Buffer (1% BSA; 5% sucrose; 0.5 mM MnCl2; in 1×TBS) at 37° C. for 2 h. Dilutions of testing compounds and recombinant TGFβ1 LAP (0.67 μg/mL) in binding buffer (0.05% BSA; 2.5% sucrose; 0.5 mM MnCl2; in 1×TBS) were added. The plate was incubated for 2 hours at 25° C., washed, and incubated for 1 hour with Biotin-Anti-hLAP. Bound antibody was detected by peroxidase-conjugated streptavidin. The IC50 values for testing compounds were calculated by a four-parameter logistic regression.
Chain of recombinant human integrin αVβ6 (P06756 31-992): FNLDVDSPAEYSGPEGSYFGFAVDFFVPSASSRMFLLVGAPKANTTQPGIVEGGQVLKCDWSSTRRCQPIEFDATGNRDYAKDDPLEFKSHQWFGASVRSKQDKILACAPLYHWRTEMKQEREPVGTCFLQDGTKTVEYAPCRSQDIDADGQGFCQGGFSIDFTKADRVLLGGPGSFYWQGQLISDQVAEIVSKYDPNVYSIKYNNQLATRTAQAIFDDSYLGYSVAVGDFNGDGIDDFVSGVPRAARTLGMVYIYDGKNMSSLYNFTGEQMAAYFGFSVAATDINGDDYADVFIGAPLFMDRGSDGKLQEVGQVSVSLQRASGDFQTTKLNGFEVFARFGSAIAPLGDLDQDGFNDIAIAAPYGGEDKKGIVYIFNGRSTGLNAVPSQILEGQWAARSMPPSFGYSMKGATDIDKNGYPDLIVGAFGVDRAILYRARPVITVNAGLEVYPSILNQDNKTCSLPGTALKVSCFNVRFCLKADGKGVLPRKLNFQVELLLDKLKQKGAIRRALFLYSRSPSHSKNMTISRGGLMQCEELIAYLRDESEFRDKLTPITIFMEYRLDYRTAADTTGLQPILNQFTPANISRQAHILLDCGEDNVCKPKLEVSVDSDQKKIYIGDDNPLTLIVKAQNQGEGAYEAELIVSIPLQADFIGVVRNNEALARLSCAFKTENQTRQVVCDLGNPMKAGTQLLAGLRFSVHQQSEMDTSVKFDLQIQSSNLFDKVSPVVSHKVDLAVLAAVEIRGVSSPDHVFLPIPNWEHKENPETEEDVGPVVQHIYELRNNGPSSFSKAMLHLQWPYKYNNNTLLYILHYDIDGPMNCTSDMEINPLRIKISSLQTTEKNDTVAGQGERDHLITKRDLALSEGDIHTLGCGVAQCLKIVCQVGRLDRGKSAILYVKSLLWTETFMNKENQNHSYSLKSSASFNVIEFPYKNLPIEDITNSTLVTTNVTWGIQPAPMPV
Chain of recombinant human integrin αVβ6 (P18564 22-707): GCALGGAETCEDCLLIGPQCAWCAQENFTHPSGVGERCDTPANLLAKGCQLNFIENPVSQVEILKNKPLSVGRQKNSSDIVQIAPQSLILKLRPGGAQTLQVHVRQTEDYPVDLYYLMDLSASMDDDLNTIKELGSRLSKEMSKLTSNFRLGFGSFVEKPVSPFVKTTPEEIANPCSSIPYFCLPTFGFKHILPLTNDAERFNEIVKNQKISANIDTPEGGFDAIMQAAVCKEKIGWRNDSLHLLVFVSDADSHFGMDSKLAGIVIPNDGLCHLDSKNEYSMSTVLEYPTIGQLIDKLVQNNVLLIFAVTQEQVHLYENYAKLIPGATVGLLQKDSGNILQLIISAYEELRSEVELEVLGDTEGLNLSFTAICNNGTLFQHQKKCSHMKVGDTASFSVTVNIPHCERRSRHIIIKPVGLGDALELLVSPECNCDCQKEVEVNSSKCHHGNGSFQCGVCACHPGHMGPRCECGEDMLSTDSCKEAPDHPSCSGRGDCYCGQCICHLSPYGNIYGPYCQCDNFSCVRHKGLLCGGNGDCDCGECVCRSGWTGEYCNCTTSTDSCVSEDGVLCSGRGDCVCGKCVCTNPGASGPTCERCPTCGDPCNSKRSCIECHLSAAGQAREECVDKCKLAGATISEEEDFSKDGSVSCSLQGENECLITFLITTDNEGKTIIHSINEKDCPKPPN
The compounds tested were compound samples prepared according to procedures described in the Synthetic Examples section, with the stereochemical purity as indicated in the Examples.
as §1, with “A third series of exemplary compounds was selected for testing in the solid phase integrin αVβ6 binding assay. The compounds tested were compound samples prepared according to procedures described in the Synthetic Examples section, with the stereochemical purity as indicated in the Examples. As in Example B1, microplates were” for “Microplates were”, “(0.67 g/mL)” for “(0.67 μg/mL)”
A word on the IC50: it is the point on the concentration scale where inhibition reaches its midpoint. On to `O=C(O)[C@H](CCN(CCCF)CCCCc1ccc2c(n1)NCCC2)Nc1ncc(C(F)(F)F)cn1` [Compound 137, (S)-4-((3-fluoropropyl) (4-(5,6,7,8-tetrahydro-1,8-naphthyridin-2-yl)butyl)amino)-2-((5-(trifluoromethyl)pyrimidin-2-yl)amino) butanoic Acid], for which the IC50 was below 50 nM.

On to `Cc1ccc(OCCN(CCCCc2ccc3c(n2)NCCC3)CC[C@H](Nc2nc(C)nc3cc(F)ccc23)C(=O)O)cn1` [Compound 56, (S)-2-((7-fluoro-2-methylquinazolin-4-yl)amino)-4-((2-((6-methylpyridin-3-yl)oxy)ethyl) (4-(5,6,7,8-tetrahydro-1,8-naphthyridin-2-yl)butyl)amino) butanoic Acid], for which the IC50 is below 50 nM.

As to `CO[C@H](C)CN(CCCCc1ccc2c(n1)NCCC2)CC[C@H](Nc1cc(-c2ccccc2)ncn1)C(=O)O` [Compound 80, (S)-4-(((R)-2-methoxypropyl) (4-(5,6,7,8-tetrahydro-1,8-naphthyridin-2-yl)butyl)amino)-2-((6-phenylpyrimidin-4-yl)amino) butanoic Acid], the IC50 was below 50 nM.

With `O=C(O)[C@H](CCN(CCCCc1ccc2c(n1)NCCC2)CCOc1ccccc1)Nc1ncc(Br)cn1` [Compound 83, (S)-2-((5-bromopyrimidin-2-yl)amino)-4-((2-phenoxyethyl) (4-(5,6,7,8-tetrahydro-1,8-naphthyridin-2-yl)butyl)amino) butanoic Acid], the IC50 was below 50 nM.

As to `Cn1ncc2c(N[C@@H](CCN(CCCCc3ccc4c(n3)NCCC4)CCC(F)F)C(=O)O)ncnc21` [Compound 133, (S)-4-((3,3-difluoropropyl) (4-(5,6,7,8-tetrahydro-1,8-naphthyridin-2-yl)butyl)amino)-2-((1-methyl-1H-pyrazolo[3,4-d]pyrimidin-4-yl)amino) butanoic Acid], the IC50 was 50 to 250 nM.

Take `COCCN(CCCCc1ccc2c(n1)NCCC2)CC[C@H](Nc1ncnc2ncccc12)C(=O)O` [Compound 11, (S)-4-((2-methoxyethyl) (4-(5,6,7,8-tetrahydro-1,8-naphthyridin-2-yl)butyl)amino)-2-(pyrido[2,3-d]pyrimidin-4-ylamino) butanoic Acid]: the IC50 is below 50 nM.

On to `Cc1nc(N[C@@H](CCN(CCCCc2ccc3c(n2)NCCC3)CCOc2ccc(F)cc2)C(=O)O)c2ccc(F)cc2n1` [Compound 40, (S)-2-((7-fluoro-2-methylquinazolin-4-yl)amino)-4-((2-(4-fluorophenoxy)ethyl) (4-(5,6,7,8-tetrahydro-1,8-naphthyridin-2-yl)butyl)amino) butanoic Acid], for which the IC50 is below 50 nM.

For the compound `O=C(O)[C@H](CCN(CCCCc1ccc2c(n1)NCCC2)CC(F)F)Nc1ccncn1` [Compound 120, (S)-4-((2,2-difluoroethyl) (4-(5,6,7,8-tetrahydro-1,8-naphthyridin-2-yl)butyl)amino)-2-(pyrimidin-4-ylamino) butanoic Acid], the IC50 is above 1000 nM.

Take `Cc1ncccc1OCCN(CCCCc1ccc2c(n1)NCCC2)CC[C@H](Nc1ncnc2ccccc12)C(=O)O` [Compound 52, (S)-4-((2-((2-methylpyridin-3-yl)oxy)ethyl) (4-(5,6,7,8-tetrahydro-1,8-naphthyridin-2-yl)butyl)amino)-2-(quinazolin-4-ylamino) butanoic Acid]: the IC50 is below 50 nM.

As for `O=C(O)[C@H](CCN(CCCCc1ccc2c(n1)NCCC2)C1CC1)Nc1ncc(C(F)(F)F)cn1` [Compound 114, (S)-4-(cyclopropyl(4-(5,6,7,8-tetrahydro-1,8-naphthyridin-2-yl)butyl)amino)-2-((5-(trifluoromethyl)pyrimidin-2-yl)amino) butanoic Acid], the IC50 is below 50 nM.

Consider `O=C(O)[C@H](CCN(CCCCc1ccc2c(n1)NCCC2)CCOc1ccccc1)Nc1ncc(C2CC2)cn1` [Compound 117, (S)-2-((5-cyclopropylpyrimidin-2-yl)amino)-4-((2-phenoxyethyl) (4-(5,6,7,8-tetrahydro-1,8-naphthyridin-2-yl)butyl)amino) butanoic Acid], for which the IC50 was below 50 nM.

For `COC[C@@H](F)CN(CCCCc1ccc2c(n1)NCCC2)CC[C@H](Nc1ccnc(C(F)(F)F)n1)C(=O)O` [Compound 87, (S)-4-(((S)-2-fluoro-3-methoxypropyl) (4-(5,6,7,8-tetrahydro-1,8-naphthyridin-2-yl)butyl)amino)-2-((2-(trifluoromethyl)pyrimidin-4-yl)amino) butanoic Acid], the IC50 was in the range of 250 to 1000 nM.

Turning to `O=C(O)[C@H](CCN(CCCCc1ccc2c(n1)NCCC2)CCOc1ccccc1)Nc1ccnc(C(F)(F)F)n1` [Compound 92, (S)-4-((2-phenoxyethyl) (4-(5,6,7,8-tetrahydro-1,8-naphthyridin-2-yl)butyl)amino)-2-((2-(trifluoromethyl)pyrimidin-4-yl)amino) butanoic Acid], the half-maximal inhibitory concentration (IC50) was below 50 nM.

Regarding `O=C(O)[C@H](CCN(CCCCc1ccc2c(n1)NCCC2)CC(F)F)Nc1ncnc2ccccc12` [Compound 8, (S)-4-((2,2-difluoroethyl) (4-(5,6,7,8-tetrahydro-1,8-naphthyridin-2-yl)butyl)amino)-2-(quinazolin-4-ylamino) butanoic Acid], the IC50 was 50 to 250 nM.

In the case of `O=C(O)[C@H](CCN(CCCCc1ccc2c(n1)NCCC2)CCC(F)F)Nc1ncc(C(F)(F)F)cn1` [Compound 132, (S)-4-((3,3-difluoropropyl) (4-(5,6,7,8-tetrahydro-1,8-naphthyridin-2-yl)butyl)amino)-2-((5-(trifluoromethyl)pyrimidin-2-yl)amino) butanoic Acid], the IC50 lay within 50 to 250 nM.

On to `COCCN(CCCCc1ccc2c(n1)NCCC2)CC[C@H](Nc1ccnc2ccccc12)C(=O)O` [Compound 36, (S)-4-((2-methoxyethyl) (4-(5,6,7,8-tetrahydro-1,8-naphthyridin-2-yl)butyl)amino)-2-(quinolin-4-ylamino) butanoic Acid], for which the IC50 was above 1000 nM.

Turning to `O=C(O)[C@H](CCN(CCCCc1ccc2c(n1)NCCC2)CC(F)F)Nc1ncnc2[nH]ncc12` [Compound 112, (S)-2-((1H-pyrazolo[3,4-d]pyrimidin-4-yl)amino)-4-((2,2-difluoroethyl) (4-(5,6,7,8-tetrahydro-1,8-naphthyridin-2-yl)butyl)amino) butanoic Acid], the IC50 lay within 250 to 1000 nM.

With `O=C(O)[C@H](CCN(CCCCc1ccc2c(n1)NCCC2)CCOc1ccccc1)Nc1ncnc2[nH]ncc12` [Compound 90, (S)-2-((1H-pyrazolo[3,4-d]pyrimidin-4-yl)amino)-4-((2-phenoxyethyl) (4-(5,6,7,8-tetrahydro-1,8-naphthyridin-2-yl)butyl)amino) butanoic Acid], the IC50 was below 50 nM.

Consider `O=C(O)[C@H](CCN(CCCCc1ccc2c(n1)NCCC2)CC(F)F)Nc1ncc(Br)cn1` [Compound 96, (S)-2-((5-bromopyrimidin-2-yl)amino)-4-((2,2-difluoroethyl) (4-(5,6,7,8-tetrahydro-1,8-naphthyridin-2-yl)butyl)amino) butanoic Acid], for which the IC50 was above 1000 nM.

In the case of `COC[C@@H](F)CN(CCCCc1ccc2c(n1)NCCC2)CC[C@H](Nc1ncc(C(F)(F)F)cn1)C(=O)O` [Compound 85, (S)-4-(((S)-2-fluoro-3-methoxypropyl) (4-(5,6,7,8-tetrahydro-1,8-naphthyridin-2-yl)butyl)amino)-2-((5-(trifluoromethyl)pyrimidin-2-yl)amino) butanoic Acid], the IC50 was 250 to 1000 nM.

With `COCCN(CCCCc1ccc2c(n1)NCCC2)CC[C@H](Nc1ncnc2cc(F)ccc12)C(=O)O` [Compound 7, (S)-2-((7-fluoroquinazolin-4-yl)amino)-4-((2-methoxyethyl) (4-(5,6,7,8-tetrahydro-1,8-naphthyridin-2-yl)butyl)amino) butanoic Acid], the IC50 is below 50 nM.

As to `Cc1ccc(OCCN(CCCCc2ccc3c(n2)NCCC3)CC[C@H](Nc2ncnc3ccccc23)C(=O)O)cn1` [Compound 59, (S)-4-((2-((6-methylpyridin-3-yl)oxy)ethyl) (4-(5,6,7,8-tetrahydro-1,8-naphthyridin-2-yl)butyl)amino)-2-(quinazolin-4-ylamino) butanoic Acid], the IC50 was below 50 nM.

For the compound `O=C(O)[C@H](CCN(CCCCc1ccc2c(n1)NCCC2)CCC(F)F)Nc1ccnc(C(F)(F)F)n1` [Compound 134, (S)-4-((3,3-difluoropropyl) (4-(5,6,7,8-tetrahydro-1,8-naphthyridin-2-yl)butyl)amino)-2-((2-(trifluoromethyl)pyrimidin-4-yl)amino) butanoic Acid], the concentration for half-maximal inhibition (IC50) was 50 to 250 nM.

The values are drawn from patent publication US10793564B2, “Amino acid compounds and methods of use” (Pliant Therapeutics, Inc., priority 2018, dated 2020).
